Data reported in ChEMBL document CHEMBL5338775, “Discovery of a Novel Class of PROTACs as Potent and Selective Estrogen Receptor α Degraders to Overcome Endocrine-Resistant Breast Cancer In Vitro and In Vivo” (J Med Chem, 2023).
Activity calls are given as the source filed them. The rule behind the calls is not given here.

Key:
MCF7 [1] = assay: Induction of apoptosis in human MCF7 cells at 1 to 10 uM incubated for 24 hrs by Annexin V-FITC/PI staining based analysis; format: functional, cell-based; conditions: dose 1-10 µM
Mus musculus [2] = assay: In vivo protac activity at VHL/ERalpha in BALB/c nude mouse xenografted with human ER-positive tamoxifen-resistant LCC2 cells assessed as reduction in ERalpha protein levels in tumor at 5 micromol/kg, ip administered once every 2 days by Western blot analysis; format: functional, organism-based; conditions: dose 5.0 µmol/kg
MCF7 [3] = assay: cells; conditions: Homo sapiens, MCF7, 72 h
[4] = target: T1, von Hippel-Lindau disease tumor suppressor/Estrogen receptor (Homo sapiens) (UniProt P03372+P40337); assay: PROTAC activity at VHL/ERalpha in ER-positive human tamoxifen-resistant LCC2 cells assessed as induction of ERalpha degradation at 2 uM incubated for 12 hrs by Western blot analysis; format: cell-based; conditions: tamoxifen-resistant LCC2 cell
T47D [5] = assay: Inhibition of gene transcription in human T47D cells assessed as reduction in Pol II occupancy at IGFBP4 promoter region by ChIP-seq analysis; format: functional, cell-based
cells = conditions: Homo sapiens, Tamoxifen-resistant LCC2 cell, 72 h
T47D [6] = assay: cells; conditions: Homo sapiens, 72 h
[7] = target: von Hippel-Lindau disease tumor suppressor/Estrogen receptor beta (Homo sapiens) (UniProt Q92731+P40337); assay: PROTAC activity at VHL/ERbeta in human NCI-H1975 cells assessed as induction of ERbeta degradation at 1 to 10 uM incubated for 12 hrs by Western blot analysis; format: cell-based; conditions: dose 1-10 µM
[8] = target: T1, von Hippel-Lindau disease tumor suppressor/Estrogen receptor (Homo sapiens); assay: PROTAC activity at VHL/wild type ERalpha in ER-positive human MCF7 cells assessed as induction of ERalpha degradation at 1 uM incubated for 12 hrs by Western blot analysis; format: cell-based
[9] = target: T1, von Hippel-Lindau disease tumor suppressor/Estrogen receptor (Homo sapiens); assay: PROTAC activity at VHL/ERalpha in ER-positive human MCF7 cells assessed as induction of ERalpha degradation at 0.01 to 10 uM incubated for 12 hrs by Western blot analysis; format: cell-based; conditions: dose 0.01-10 µM
[10] = test system: tamoxifen-resistant LCC2 cell; assay: Antitumor activity against human ER-positive tamoxifen-resistant LCC2 cells xenografted in BALB/c nude mouse assessed as reduction in tumor growth at 5 micromol/kg, ip administered once every 2 days and measured every 2 days; format: functional, organism-based; conditions: dose 5.0 µmol/kg
Estrogen receptor beta [11] = target: T2, Estrogen receptor beta (Homo sapiens, UniProt Q92731); assay: Binding affinity to ERbeta (unknown origin) assessed as relative binding affinity incubated for 2 hrs by fluorescence polarization assay relative to estradiol
T47D [12] = assay: Inhibition of gene transcription in human T47D cells assessed as reduction in H3K27ac levels in IGFBP4 promoter region by ChIP-seq analysis; format: functional, cell-based
MDA-MB-231 = assay: cells; conditions: Homo sapiens, MDA-MB-231, 72 h
T47D [13] = assay: cells; conditions: Homo sapiens, 72 h; remark: listed apart in the source
[14] = target: T3, Estrogen receptor (Homo sapiens) (UniProt P03372); assay: Inhibition of ERalpha binding to DNA in human T47D cells assessed as reduction in protein occupancy incubated for 6 hrs by ChIP-seq analysis; format: cell-based
T3 sequence (whole entry): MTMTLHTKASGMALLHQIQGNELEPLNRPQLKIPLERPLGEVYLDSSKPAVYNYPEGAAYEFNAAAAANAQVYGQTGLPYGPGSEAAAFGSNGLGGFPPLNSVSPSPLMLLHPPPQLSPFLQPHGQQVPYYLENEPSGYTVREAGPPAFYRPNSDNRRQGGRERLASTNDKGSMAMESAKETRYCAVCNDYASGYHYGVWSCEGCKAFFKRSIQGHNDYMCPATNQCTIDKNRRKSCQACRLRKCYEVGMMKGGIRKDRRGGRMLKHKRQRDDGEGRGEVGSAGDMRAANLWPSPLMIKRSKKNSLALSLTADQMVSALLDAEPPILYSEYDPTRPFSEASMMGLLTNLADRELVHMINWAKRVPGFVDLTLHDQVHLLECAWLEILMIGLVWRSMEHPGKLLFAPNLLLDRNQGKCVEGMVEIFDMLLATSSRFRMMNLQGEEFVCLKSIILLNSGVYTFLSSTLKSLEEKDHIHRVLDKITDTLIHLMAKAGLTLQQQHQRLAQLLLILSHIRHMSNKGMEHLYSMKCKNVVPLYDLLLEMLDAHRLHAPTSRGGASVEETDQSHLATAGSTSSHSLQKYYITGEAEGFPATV

T47D [15] = assay: Inhibition of nascent GREB1 RNA synthesis in human T47D cells incubated for 6 hrs by 4-thiouridine incorporation assay; format: functional, cell-based
T47D [16] = assay: Inhibition of gene transcription in human T47D cells assessed as reduction in H3K27ac levels in GREB1 promoter region by ChIP-seq analysis; format: functional, cell-based
T47D [17] = assay: cells; conditions: Homo sapiens, 72 h; remark: listed apart in the source
[18] = Selectivity index, ratio of Ki for ERalpha (unknown origin) to Ki for ERbeta (unknown origin)
MCF7 [19] = assay: Induction of cell cycle arrest in human MCF7 cells at 1 to 10 uM incubated for 24 hrs; format: functional, cell-based; conditions: dose 1-10 µM
Estrogen receptor beta [20] = target: T2, Estrogen receptor beta
T47D [21] = assay: Inhibition of nascent IGFBP4 RNA synthesis in human T47D cells incubated for 6 hrs by 4-thiouridine incorporation assay; format: functional, cell-based
T47D [22] = assay: Inhibition of gene transcription in human T47D cells assessed as reduction in Pol II occupancy at GREB1 promoter region by ChIP-seq analysis; format: functional, cell-based
[23] = Selectivity ratio of relative binding affinity for ERalpha (unknown origin) to relative binding affinity to ERbeta (unknown origin)
[24] = target: T1, von Hippel-Lindau disease tumor suppressor/Estrogen receptor (Homo sapiens); assay: PROTAC activity at VHL/wild type ERalpha in ER-positive human T47D cells assessed as induction of ERalpha degradation at 2 uM incubated for 12 hrs by Western blot analysis; format: cell-based
Estrogen receptor = target: T4, Estrogen receptor (Homo sapiens, UniProt P03372)
T4 sequence (P03372 whole entry): T3 sequence (whole entry)

in vitro = conditions: human, MCF-10A cells
[25] = Toxicity in BALB/c nude mouse xenografted with human tamoxifen-sensitive MCF7 cells assessed as mortality at 1 to 10 micromol/kg, ip administered once every 2 days and measured every 2 days; format: organism-based; conditions: in vivo, 48 h, dose 1-10 µmol/kg
MCF7 [26] = assay: Antitumor activity against human tamoxifen-sensitive MCF7 cells xenografted in BALB/c nude mouse assessed as inhibition of tumor growth at 1 to 10 micromol/kg, ip administered once every 2 days and measured every 2 days; format: functional, organism-based; conditions: dose 1-10 µmol/kg
MCF7 [27] = assay: Antitumor activity against human tamoxifen-sensitive MCF7 cells xenografted in BALB/c nude mouse assessed as increase in tumor necrosis area at 5 micromol/kg, ip administered once every 2 days by […] staining based analysis; format: functional, organism-based; conditions: dose 5.0 µmol/kg
Mus musculus [28] = assay: In vivo protac activity at VHL/ERalpha in BALB/c nude mouse xenografted with human tamoxifen-sensitive MCF7 cells assessed as reduction in ERalpha protein levels in tumor at 1 to 10 micromol/kg, ip administered once every 2 days by Western blot analysis; format: functional, organism-based; conditions: dose 1-10 µmol/kg
[29] = target: T1, von Hippel-Lindau disease tumor suppressor/Estrogen receptor (Homo sapiens); assay: PROTAC activity at VHL/ERalpha in ER-positive human MCF7 cells assessed as induction of ERalpha degradation at 1 uM incubated for 12 hrs in presence of N-ethyl-5,6-bis(4-hydroxyphenyl)-N-(4-methoxyphenyl)-7-oxabicyclo[2.2.1]hept-5-ene-2-sulfonamide by Western blot analysis; format: cell-based
[30] = Toxicity in BALB/c nude mouse xenografted with human tamoxifen-sensitive MCF7 cells assessed as pathological changes in kidney at 1 to 10 micromol/kg, ip administered once every 2 days by H and E staining based assay; format: organism-based; conditions: in vivo, 48 h, dose 1-10 µmol/kg
[31] = target: T1, von Hippel-Lindau disease tumor suppressor/Estrogen receptor (Homo sapiens); assay: PROTAC activity at VHL/ERalpha in ER-positive human MCF7 cells assessed as induction of ERalpha degradation at 1 uM incubated for 12 hrs in presence of (2S,4R)-1-[(2S)-2-amino-3,3-dimethylbutanoyl]-4-hydroxy-N-[(1S)-1-[4-(4-methyl-1,3-thiazol-5-yl)phenyl]ethyl]pyrrolidine-2-carboxamide by Western blot analysis; format: cell-based
[32] = Toxicity in BALB/c nude mouse xenografted with human tamoxifen-sensitive MCF7 cells assessed as reduction in body weight at 1 to 10 micromol/kg, ip administered once every 2 days and measured every 2 days; format: organism-based; conditions: in vivo, 48 h, dose 1-10 µmol/kg
[33] = Toxicity in BALB/c nude mouse xenografted with human tamoxifen-sensitive MCF7 cells assessed as pathological changes in liver at 1 to 10 micromol/kg, ip administered once every 2 days by H and E staining based assay; format: organism-based; conditions: in vivo, 48 h, dose 1-10 µmol/kg
[34] = target: T1, von Hippel-Lindau disease tumor suppressor/Estrogen receptor (Homo sapiens); assay: PROTAC activity at VHL/ERalpha in ER-positive human MCF7 cells assessed as induction of ERalpha degradation at 1 uM incubated for 12 hrs in presence of proteasome inhibitor, MG132 by Western blot analysis; format: cell-based
[35] = Toxicity in BALB/c nude mouse xenografted with human tamoxifen-sensitive MCF7 cells assessed as pathological changes in heart at 1 to 10 micromol/kg, ip administered once every 2 days by H and E staining based assay; format: organism-based; conditions: in vivo, 48 h, dose 1-10 µmol/kg
MCF7 [36] = assay: Antitumor activity against human tamoxifen-sensitive MCF7 cells xenografted in BALB/c nude mouse assessed as reduction in cell proliferation at 5 micromol/kg, ip administered once every 2 days by ki67 staining based analysis; format: functional, organism-based; conditions: dose 5.0 µmol/kg

T2 sequence (Q92731 whole entry): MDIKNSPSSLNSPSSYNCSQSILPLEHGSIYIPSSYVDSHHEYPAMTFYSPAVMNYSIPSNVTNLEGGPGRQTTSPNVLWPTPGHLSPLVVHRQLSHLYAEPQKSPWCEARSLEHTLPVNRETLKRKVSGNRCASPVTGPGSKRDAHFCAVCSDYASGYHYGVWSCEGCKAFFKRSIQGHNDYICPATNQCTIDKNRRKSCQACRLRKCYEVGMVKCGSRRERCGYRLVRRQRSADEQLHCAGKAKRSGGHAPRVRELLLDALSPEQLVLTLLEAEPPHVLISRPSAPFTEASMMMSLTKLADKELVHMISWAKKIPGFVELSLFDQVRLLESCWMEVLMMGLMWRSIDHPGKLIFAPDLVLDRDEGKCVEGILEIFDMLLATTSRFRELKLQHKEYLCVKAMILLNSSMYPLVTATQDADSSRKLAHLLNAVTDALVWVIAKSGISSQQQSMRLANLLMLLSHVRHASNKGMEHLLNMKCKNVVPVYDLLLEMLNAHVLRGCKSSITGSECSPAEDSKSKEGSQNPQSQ
T1 sequence (P40337 whole entry, looked up, one chain of several): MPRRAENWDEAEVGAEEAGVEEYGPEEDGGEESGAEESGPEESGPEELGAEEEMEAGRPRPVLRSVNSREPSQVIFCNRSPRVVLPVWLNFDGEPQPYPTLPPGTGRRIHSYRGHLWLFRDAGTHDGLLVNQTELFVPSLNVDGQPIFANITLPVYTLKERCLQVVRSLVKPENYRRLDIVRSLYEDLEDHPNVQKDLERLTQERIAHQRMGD
Chain of von Hippel-Lindau disease tumor suppressor/Estrogen receptor beta (Homo sapiens) (P40337 whole entry, looked up): as the sequence (P40337 whole entry, looked up, one chain of several) above
Chain of von Hippel-Lindau disease tumor suppressor/Estrogen receptor beta (Homo sapiens) (Q92731 whole entry, looked up): as the sequence (Q92731 whole entry) above

| SMILES | Activity (MCF7 [1]) | IC50 (MCF7 [3]) | Activity [4] | inhibition (T47D [5]) | IC50 (cells) | IC50 (T47D [6]) | Activity [7] | Activity [8] | Activity [9] | Activity [10] | RBA (Estrogen receptor beta [11]) | inhibition (T47D [12]) | IC50 (MDA-MB-231) | IC50 (T47D [13]) | inhibition [14] | inhibition (T47D [15]) | inhibition (T47D [16]) | IC50 (T47D [17]) | Ratio Ki [18] | Activity (MCF7 [19]) | also measured |
| --- | --- | --- | --- | --- | --- | --- | --- | --- | --- | --- | --- | --- | --- | --- | --- | --- | --- | --- | --- | --- | --- |
| Cc1ncsc1-c1ccc([C@H](C)NC(=O)[C@@H]2C[C@@H](O)CN2C(=O)[C@@H](NC(=O)CCCCCOc2ccc(N(CC(F)(F)F)S(=O)(=O)C3CC4OC3C(c3ccc(O)cc3)=C4c3ccc(O)cc3)cc2)C(C)(C)C)cc1 (some centres not stated) | Active | 0.05 µM | Active | Active | 4.17 µM | 1.51 µM | inactive | Active | Active | Active | 0.03% | Active | > 100 µM | 1.26 µM | Active | Active | Active | 1.35 µM | 5.16 | Active | Activity (Mus musculus [2]): Active; Ki (Estrogen receptor beta [20]): 26.2 µM; inhibition (T47D [21]): Active; inhibition (T47D [22]): Active; Selectivity ratio [23]: 1.33; Activity [24]: Active; Ki (Estrogen receptor): 5.08 µM; IC50 at 72 h (in vitro): 7.69 µM |
| CCN(c1ccc(OCCCCCC(=O)N[C@H](C(=O)N2C[C@H](O)C[C@H]2C(=O)N[C@@H](C)c2ccc(-c3scnc3C)cc2)C(C)(C)C)cc1)S(=O)(=O)C1CC2OC1C(c1ccc(O)cc1)=C2c1ccc(O)cc1 (some centres not stated) | Active | 0.31 µM | Active | Active | 12.3 µM | 9.52 µM | inactive | Active | Active | Active | 0.06% | Active | > 100 µM | 8.12 µM | Active | Active | Active | 7.51 µM | 5.16 | Active | Activity [25]: Non-Toxic; inhibition (MCF7 [26]): Active; Activity (MCF7 [27]): Active; Activity (Mus musculus [28]): Active; Activity [29]: inactive; Activity [30]: Non-Toxic; Activity [31]: inactive; Activity [32]: Non-Toxic; Activity [33]: Non-Toxic; Activity [34]: inactive; Activity [35]: Non-Toxic; Activity (MCF7 [36]): Active; Ki (Estrogen receptor beta [20]): 13.1 µM; inhibition (T47D [21]): Active; inhibition (T47D [22]): Active; Selectivity ratio [23]: 1.33; Activity [24]: Active; Ki (Estrogen receptor): 2.54 µM; IC50 at 72 h (in vitro): > 100 µM |
